Molecules are shown by their SMILES. Where a name gives a salt, the structure may show the parent alone.

The subject of the test is HCV (−) RNA synthesis. The test is described as follows: HCV (−) strand RNA synthesis in the inducible HCV replication system, RNase protection assay. The settings on record: for results on HCV (−) RNA synthesis with changed time of addition: drug given 0 and 12 hours before vTF7-3 infection, compared with 20 hours. Further details: inhibitory effect on HCV (−) RNA synthesis: dose or concentration left out as unconfirmed. It counts as cell-based, hepatitis C virus (genotype 1a, strain H77) in CV-1 cells.

As for `NC12CC3CC(CC(C3)C1)C2` [amantadine, Amantadine-HCl], the “results on HCV (−) RNA synthesis with changed time of addition” value was “unchanged”. For the same compound, the “activity against HCV (−) strand synthesis” value (amantadine 1-100 μg/well, added 20 hours prior to vTF7-3 infection) is “no activity”.

For `NC(=O)c1ncn([C@@H]2O[C@H](CO)[C@@H](O)[C@H]2O)n1` [ribavirin], the “results on HCV (−) RNA synthesis with changed time of addition” value is “unchanged”. Also, the “inhibitory effect on HCV (−) RNA synthesis” value (ribavirin, added 20 hours prior to vTF7-3) was “No inhibitory effect”.

For the origin of these results see patent US6828139B2, “Production of replicative hepatitis C virus” (priority 2000, dated 2004).
